For 2 compounds, IC50 results are on record in BindingDB's records for doi:10.1016/j.bmcl.2015.05.018 (Martin-Luther-University Halle-Wittenberg, 2015).

Data set [1] in a line: Inhibition of human P-gp expressed in mouse T-cell lymphoma assessed as potentiation of daunorubicin-induced cellular toxicity by measuring daunorubicin IC50 at 10 uM by MTT assay (Rvb = 8.26 +/- 0.62 uM). (Formazan colour is commonly taken as a measure of viable cells.)
Data set [2] is described as follows: Inhibition of human P-gp expressed in mouse T-cell lymphoma assessed as potentiation of daunorubicin-induced cellular toxicity by measuring daunorubicin IC50 at 5 uM by MTT assay (Rvb = 8.26 +/- 0.62 uM).

The term IC50 denotes the midpoint of a concentration-inhibition curve. On to `CCOC(=O)C1=CN(Cc2ccccc2)c2ccccc2C1c1cccc(OC)c1` (stereo not drawn), for which the IC50 in data set [1] was determined as 860 nM.

In the case of `CCOC(=O)C1=CN(Cc2ccccc2)c2ccccc2C1c1ccc(OC)c(OC)c1` (stereo not drawn), the IC50 in data set [2] came out at 4760 nM; in data set [1], 390 nM.
